From ChEMBL document CHEMBL5465560, “Selectivity Literature for EUbOPEN Chemogenomic Library” (2024)
Blank lines part the entries; values can stand above or below the molecule they belong to.

Key:
[1] = biological target: Calcium/calmodulin-dependent protein kinase type II subunit beta (Homo sapiens) (UniProt Q13554); assay: Selectivity interaction (KinomeScan (DiscoverX)) EUB0000607a CAMK2B; conditions: at 10 µM
[2] = biological target: Serine/threonine-protein kinase PAK 6 (Homo sapiens) (UniProt Q9NQU5); assay: Selectivity interaction (Upstate Kinase Profiler service (Millipore)) EUB0000056c PAK6; conditions: at 1 µM
Serine/threonine-protein kinase PAK 6 (Homo sapiens), sequence (Q9NQU5 whole entry, looked up): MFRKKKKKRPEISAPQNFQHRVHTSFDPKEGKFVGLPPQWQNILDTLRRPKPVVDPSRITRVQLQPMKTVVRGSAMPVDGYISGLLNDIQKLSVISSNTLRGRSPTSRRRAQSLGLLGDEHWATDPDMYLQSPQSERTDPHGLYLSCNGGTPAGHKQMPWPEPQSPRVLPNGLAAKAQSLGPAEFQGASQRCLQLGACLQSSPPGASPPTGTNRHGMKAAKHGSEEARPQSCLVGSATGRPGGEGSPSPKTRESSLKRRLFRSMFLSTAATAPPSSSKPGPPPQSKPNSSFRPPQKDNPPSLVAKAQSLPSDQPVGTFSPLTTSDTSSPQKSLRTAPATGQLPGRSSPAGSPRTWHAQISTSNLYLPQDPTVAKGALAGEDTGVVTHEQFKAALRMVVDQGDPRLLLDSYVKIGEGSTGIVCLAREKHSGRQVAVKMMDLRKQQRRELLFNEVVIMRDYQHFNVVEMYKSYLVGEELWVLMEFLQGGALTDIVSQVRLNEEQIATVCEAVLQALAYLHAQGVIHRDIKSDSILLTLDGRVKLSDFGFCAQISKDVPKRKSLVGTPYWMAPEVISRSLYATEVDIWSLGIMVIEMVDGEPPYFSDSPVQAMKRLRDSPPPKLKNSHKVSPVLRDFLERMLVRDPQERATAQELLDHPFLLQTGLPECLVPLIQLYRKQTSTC

[3] = biological target: Cyclin-dependent kinase 20 (Homo sapiens) (UniProt Q8IZL9); assay: Selectivity interaction (ActivX KiNativ screen (kinase selectivity in THP-1 cell lysates)) EUB0000639a CDK20; format: subcellular; conditions: lysate
Cyclin-dependent kinase 20 (Homo sapiens), sequence (Q8IZL9 whole entry): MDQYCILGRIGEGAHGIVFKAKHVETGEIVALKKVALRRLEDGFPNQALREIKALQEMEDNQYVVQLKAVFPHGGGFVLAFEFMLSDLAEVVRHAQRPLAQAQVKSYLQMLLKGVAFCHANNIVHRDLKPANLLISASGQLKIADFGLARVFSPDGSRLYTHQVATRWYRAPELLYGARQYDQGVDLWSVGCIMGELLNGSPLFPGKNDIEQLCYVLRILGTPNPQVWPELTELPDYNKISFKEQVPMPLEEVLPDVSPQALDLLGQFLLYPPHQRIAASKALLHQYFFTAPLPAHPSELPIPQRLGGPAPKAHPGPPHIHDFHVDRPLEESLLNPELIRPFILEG

[4] = biological target: Protein-tyrosine kinase 6 (Homo sapiens, UniProt Q13882); assay: Selectivity interaction (KinaseProfiler screening (Millipore)) EUB0000601a PTK6; conditions: at 3 µM
Protein-tyrosine kinase 6, sequence (Q13882 whole entry, looked up): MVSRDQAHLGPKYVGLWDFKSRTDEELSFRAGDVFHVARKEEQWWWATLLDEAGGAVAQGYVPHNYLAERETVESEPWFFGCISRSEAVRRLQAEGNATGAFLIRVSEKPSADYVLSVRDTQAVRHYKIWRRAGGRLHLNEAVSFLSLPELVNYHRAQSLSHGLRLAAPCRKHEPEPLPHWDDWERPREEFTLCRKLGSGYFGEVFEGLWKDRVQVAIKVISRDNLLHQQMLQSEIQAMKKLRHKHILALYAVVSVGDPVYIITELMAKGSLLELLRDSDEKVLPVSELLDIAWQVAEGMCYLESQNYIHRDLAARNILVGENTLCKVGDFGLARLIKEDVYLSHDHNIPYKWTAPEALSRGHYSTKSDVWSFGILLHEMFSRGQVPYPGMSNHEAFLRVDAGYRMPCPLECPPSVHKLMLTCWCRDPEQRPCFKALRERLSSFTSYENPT

[5] = biological target: Tyrosine-protein kinase receptor Tie-1 (Homo sapiens) (UniProt P35590); conditions: at 10 µM
Tyrosine-protein kinase receptor Tie-1 (Homo sapiens), sequence (P35590 whole entry): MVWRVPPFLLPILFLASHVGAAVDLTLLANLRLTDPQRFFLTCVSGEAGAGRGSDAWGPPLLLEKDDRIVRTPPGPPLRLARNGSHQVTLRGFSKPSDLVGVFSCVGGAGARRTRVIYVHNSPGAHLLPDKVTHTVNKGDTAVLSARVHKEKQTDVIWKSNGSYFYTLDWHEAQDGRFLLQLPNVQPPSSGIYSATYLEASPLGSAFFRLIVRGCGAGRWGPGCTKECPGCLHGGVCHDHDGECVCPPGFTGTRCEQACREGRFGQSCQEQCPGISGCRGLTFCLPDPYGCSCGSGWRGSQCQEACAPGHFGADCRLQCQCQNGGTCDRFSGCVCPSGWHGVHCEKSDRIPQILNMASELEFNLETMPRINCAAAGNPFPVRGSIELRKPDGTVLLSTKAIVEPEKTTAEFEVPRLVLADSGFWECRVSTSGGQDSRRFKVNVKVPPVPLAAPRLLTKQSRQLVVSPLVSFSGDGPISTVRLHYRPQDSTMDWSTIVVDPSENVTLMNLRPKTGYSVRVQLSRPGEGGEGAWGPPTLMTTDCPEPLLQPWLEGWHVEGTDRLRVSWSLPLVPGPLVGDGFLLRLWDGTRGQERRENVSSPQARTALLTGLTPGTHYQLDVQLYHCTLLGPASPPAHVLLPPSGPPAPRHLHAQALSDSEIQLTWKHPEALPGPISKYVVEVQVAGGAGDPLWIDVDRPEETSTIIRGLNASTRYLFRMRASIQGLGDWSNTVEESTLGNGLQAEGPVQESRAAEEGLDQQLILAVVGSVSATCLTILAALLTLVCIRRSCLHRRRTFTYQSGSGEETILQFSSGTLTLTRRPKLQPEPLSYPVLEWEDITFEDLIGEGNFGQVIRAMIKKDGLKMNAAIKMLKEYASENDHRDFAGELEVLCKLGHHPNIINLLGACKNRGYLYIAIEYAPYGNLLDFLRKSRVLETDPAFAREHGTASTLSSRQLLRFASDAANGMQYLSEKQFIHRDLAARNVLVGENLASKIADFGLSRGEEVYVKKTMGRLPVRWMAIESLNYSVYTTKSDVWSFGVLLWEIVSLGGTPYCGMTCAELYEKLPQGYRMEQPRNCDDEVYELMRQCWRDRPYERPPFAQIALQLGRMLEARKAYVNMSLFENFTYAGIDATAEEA

[6] = biological target: Serine/threonine-protein kinase OSR1 (Homo sapiens) (UniProt O95747); assay: Selectivity interaction (KinomeScan (DiscoverX)) EUB0001049a OXSR1; conditions: at 1 µM
[7] = biological target: T1, Ephrin type-B receptor 3 (Homo sapiens) (UniProt P54753); assay: Selectivity interaction (KinomeScan (DiscoverX)) EUB0001049a EPHB3; conditions: at 1 µM
T1 sequence (whole entry): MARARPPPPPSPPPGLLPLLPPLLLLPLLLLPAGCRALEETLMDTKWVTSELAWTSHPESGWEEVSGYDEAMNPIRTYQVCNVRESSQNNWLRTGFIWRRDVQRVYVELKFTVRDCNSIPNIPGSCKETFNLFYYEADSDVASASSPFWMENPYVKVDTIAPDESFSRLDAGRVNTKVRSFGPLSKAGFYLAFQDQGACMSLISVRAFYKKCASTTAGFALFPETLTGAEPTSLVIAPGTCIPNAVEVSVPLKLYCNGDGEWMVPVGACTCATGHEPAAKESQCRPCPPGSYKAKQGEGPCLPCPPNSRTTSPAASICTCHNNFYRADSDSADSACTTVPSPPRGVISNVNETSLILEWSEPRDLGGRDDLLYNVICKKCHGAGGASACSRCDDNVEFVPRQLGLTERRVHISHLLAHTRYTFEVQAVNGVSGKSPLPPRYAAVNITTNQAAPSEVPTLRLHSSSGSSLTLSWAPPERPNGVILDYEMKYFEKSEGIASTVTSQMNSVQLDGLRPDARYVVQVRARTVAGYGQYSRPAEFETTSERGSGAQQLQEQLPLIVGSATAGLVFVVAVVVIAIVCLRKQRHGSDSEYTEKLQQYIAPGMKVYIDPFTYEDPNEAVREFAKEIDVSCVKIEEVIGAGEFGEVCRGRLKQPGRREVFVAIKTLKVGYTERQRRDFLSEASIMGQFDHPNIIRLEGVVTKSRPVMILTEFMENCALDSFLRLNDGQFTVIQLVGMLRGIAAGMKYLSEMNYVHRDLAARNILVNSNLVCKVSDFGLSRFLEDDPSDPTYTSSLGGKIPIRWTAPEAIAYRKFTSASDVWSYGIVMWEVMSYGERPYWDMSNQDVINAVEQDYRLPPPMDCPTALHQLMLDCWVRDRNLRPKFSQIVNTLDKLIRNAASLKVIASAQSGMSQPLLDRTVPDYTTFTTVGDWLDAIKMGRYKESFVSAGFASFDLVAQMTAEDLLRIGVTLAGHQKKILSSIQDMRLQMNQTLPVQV

[8] = biological target: T2, Dual specificity mitogen-activated protein kinase kinase 6 (Homo sapiens) (UniProt P52564); assay: Selectivity interaction (Millipore kinase profiler) EUB0000124b MAP2K6; conditions: at 10 µM
T2 sequence (whole entry): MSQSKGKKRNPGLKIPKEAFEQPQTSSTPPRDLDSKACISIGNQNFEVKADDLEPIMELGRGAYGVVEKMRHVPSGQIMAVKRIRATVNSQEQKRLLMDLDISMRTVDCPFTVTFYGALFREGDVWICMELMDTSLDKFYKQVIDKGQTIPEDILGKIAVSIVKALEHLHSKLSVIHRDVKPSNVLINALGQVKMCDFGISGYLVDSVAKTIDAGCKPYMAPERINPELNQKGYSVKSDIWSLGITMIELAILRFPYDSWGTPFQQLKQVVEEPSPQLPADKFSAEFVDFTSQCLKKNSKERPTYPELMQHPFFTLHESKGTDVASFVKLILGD

[9] = biological target: T3, Membrane-associated tyrosine- and threonine-specific cdc2-inhibitory kinase (Homo sapiens) (UniProt Q99640); assay: Selectivity interaction (Ambit KINOMEscan and KiNATiv profiling in Jurkat cells) EUB0000090b PKMYT1; format: cell-based; conditions: at 1 µM
T3 sequence (whole entry): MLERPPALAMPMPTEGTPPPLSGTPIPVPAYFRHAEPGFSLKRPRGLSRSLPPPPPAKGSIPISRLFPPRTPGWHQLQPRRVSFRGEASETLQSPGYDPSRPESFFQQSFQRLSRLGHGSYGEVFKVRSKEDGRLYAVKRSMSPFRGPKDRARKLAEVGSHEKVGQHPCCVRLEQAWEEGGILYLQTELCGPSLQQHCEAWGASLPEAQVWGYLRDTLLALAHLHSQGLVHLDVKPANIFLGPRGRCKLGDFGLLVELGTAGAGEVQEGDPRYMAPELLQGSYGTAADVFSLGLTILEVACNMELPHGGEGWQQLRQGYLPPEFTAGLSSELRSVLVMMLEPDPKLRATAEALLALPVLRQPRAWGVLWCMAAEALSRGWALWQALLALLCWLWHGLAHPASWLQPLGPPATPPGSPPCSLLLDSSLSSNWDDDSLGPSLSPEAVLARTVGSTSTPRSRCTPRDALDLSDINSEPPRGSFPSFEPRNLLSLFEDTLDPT

[10] = biological target: Receptor-type tyrosine-protein kinase FLT3 (Homo sapiens) (UniProt P36888); assay: Selectivity interaction (SelectScreen Kinase Profiling (Thermo Fisher Scientific)) EUB0001558a FLT3; conditions: at 1 µM
Receptor-type tyrosine-protein kinase FLT3 (Homo sapiens), sequence (P36888 whole entry): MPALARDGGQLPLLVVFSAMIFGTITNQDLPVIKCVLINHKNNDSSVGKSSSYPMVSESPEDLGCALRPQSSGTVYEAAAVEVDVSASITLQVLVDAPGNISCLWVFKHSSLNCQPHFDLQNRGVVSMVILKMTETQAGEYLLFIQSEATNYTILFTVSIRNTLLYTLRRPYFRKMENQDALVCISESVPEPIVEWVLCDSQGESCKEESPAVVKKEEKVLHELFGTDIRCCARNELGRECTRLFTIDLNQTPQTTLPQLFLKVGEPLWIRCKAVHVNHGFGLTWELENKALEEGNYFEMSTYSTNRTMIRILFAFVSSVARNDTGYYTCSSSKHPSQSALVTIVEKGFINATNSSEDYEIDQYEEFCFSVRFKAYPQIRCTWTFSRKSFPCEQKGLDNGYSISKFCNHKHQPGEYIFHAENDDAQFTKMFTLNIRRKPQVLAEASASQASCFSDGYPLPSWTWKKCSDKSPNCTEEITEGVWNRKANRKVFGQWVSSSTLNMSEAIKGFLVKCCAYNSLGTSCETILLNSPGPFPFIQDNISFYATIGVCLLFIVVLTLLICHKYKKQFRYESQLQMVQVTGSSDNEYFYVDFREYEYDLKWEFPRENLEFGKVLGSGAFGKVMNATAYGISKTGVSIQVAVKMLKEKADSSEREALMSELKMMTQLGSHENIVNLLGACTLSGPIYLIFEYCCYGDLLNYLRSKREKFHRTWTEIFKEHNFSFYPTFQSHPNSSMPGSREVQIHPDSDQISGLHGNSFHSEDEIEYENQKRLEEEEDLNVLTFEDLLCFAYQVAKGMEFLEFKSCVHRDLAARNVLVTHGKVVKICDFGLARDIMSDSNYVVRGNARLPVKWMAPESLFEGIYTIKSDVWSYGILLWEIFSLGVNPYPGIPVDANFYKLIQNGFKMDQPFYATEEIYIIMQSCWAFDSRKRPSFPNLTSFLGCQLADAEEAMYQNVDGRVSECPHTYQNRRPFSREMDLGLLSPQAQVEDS

[11] = biological target: Serine/threonine-protein kinase 38 (Homo sapiens) (UniProt Q15208); assay: Selectivity interaction (KinomeScan (DiscoverX)) EUB0000229b STK38; conditions: at 10 µM
Serine/threonine-protein kinase 38 (Homo sapiens), sequence (Q15208 2-465 limits assumed): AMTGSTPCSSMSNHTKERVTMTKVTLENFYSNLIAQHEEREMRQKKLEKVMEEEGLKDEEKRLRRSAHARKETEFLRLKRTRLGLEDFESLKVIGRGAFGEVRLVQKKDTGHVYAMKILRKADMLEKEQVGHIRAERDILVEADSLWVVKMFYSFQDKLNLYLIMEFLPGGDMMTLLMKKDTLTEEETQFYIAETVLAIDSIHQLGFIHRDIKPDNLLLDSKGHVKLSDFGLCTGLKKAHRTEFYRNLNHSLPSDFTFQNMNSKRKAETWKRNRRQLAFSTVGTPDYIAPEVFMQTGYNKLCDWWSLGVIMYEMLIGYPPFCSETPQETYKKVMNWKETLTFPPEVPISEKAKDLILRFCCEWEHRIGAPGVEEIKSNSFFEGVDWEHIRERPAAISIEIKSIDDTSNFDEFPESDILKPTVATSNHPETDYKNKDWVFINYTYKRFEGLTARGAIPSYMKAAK

[12] = biological target: Homeodomain-interacting protein kinase 3 (Homo sapiens, UniProt Q9H422); assay: Selectivity interaction (KinomeScan (DiscoverX)) EUB0000618a HIPK3; conditions: at 10 µM

Calcium/calmodulin-dependent protein kinase type II subunit beta (Homo sapiens), sequence (Q13554 whole entry): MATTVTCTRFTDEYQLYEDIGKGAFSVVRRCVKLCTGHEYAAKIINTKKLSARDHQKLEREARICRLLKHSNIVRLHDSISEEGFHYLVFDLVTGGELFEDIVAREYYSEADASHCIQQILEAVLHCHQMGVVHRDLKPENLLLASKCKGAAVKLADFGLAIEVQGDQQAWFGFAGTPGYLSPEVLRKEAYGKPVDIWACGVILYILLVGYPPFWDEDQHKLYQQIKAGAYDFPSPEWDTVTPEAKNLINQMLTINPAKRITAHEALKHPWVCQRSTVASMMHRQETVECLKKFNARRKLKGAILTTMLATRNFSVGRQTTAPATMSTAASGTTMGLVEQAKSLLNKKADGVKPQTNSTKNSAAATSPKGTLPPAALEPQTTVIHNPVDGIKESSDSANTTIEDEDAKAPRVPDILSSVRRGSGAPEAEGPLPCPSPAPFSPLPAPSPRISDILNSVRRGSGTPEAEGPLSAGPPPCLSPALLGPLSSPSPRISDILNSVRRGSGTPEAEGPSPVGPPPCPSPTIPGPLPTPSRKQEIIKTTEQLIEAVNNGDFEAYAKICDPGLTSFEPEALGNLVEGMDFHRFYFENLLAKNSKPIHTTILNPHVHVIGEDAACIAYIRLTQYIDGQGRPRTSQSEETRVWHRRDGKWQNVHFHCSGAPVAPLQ

SMILES: CNC(=O)Nc1ccc(-c2nc(N3CC4CCC(C3)O4)c3cnn(C4CCC5(CC4)OCCO5)c3n2)cc1
% of control [1]: 100%

% of inhibition [2]: 4%
SMILES: Cc1ccc(-c2ccc3c(ccc4sc5c(c43)NC[C@@H](C)NC5=O)n2)cn1

% of inhibition ([3]; at 0.01 µM): 6.4% | % of inhibition ([3]; at 0.04 µM): -8.7% | % of inhibition ([3]; at 0.2 µM): -2% | % of inhibition ([3]; at 1 µM): -0.8% | % of inhibition ([3]; at 5 µM): -1.4%
SMILES: CC[C@@H]1[C@H](F)C(=O)N[C@@H]1COc1nccc2cc(C(N)=O)c(OC)cc12 [ZIMLOVISERTIB]

% of inhibition [4]: 65%
SMILES: CCc1cc(Nc2nccc(-c3c(-c4ccc(OC)c(C(=O)Nc5c(F)cccc5F)c4)nc4ccccn34)n2)c(OC)cc1N1CCC(N2CCN(S(C)(=O)=O)CC2)CC1

SMILES: COCC(=O)NC/C=C/c1ccc2ncnc(Nc3ccc(Oc4ccc(C)nc4)c(C)c3)c2c1 [CP-724714]
% of control [5]: 100%

SMILES: COc1cc(Nc2nc(C)cc(-c3cnn4nc(OC)ccc34)n2)cc(C(F)(F)F)c1
% of control [6]: 83% | % of control [7]: 97%

% of control [8]: 70%
SMILES: CC(=O)Nc1cccc(-n2c(=O)n(C3CC3)c(=O)c3c(Nc4ccc(I)cc4F)n(C)c(=O)c(C)c32)c1

SMILES: CN(C)C/C=C/C(=O)Nc1ccc(C(=O)N2CCCC(Nc3ncc(Cl)c(-c4c[nH]c5ccccc45)n3)C2)cc1 (stereo unspecified)
% of control [9]: 93%

SMILES: CC(C)(O)[C@H](F)CN1Cc2cc(NC(=O)c3cnn4cccnc34)c(N3CCOCC3)cc2C1=O
% of inhibition [10]: 90.8%

SMILES: COc1cc(N(C)c2ccnc3ccc(C(F)(F)F)cc23)cc(OC)c1OC
% binding [11]: 83%

SMILES: O[C@H]1CC[C@H](Nc2ncc3nc(Nc4c(F)cc(F)cc4F)n([C@H]4CCOC4)c3n2)CC1
% of control [12]: 95%
